Measurements reported in PMC10394516, “The pharmacokinetic profile of brensocatib and its effect on pharmacodynamic biomarkers including NE, PR3, and CatG in various rodent species” (Frontiers in Pharmacology, 2023).

Tests used:
CatG [1] = assay: Bone marrow CatG activity after repeated dosing, C57BL/6 mice; type: in vivo; details: for Reduction of CatG activity vs vehicle / Change From Vehicle Control (%) CatG: 7 days
Protocol: (§1) Briefly, animals were weighed and randomized into different treatment groups. In total, three different dosing levels of brensocatib were tested in each species and strain; each QD dosing level was equivalent to 1.5-times the matching daily BID dose. For BID dosing, the second daily dose was administered 8-h post the morning dose. C57BL/6 mice were dosed either BID or QD for 7 consecutive days at 0/0, 0.5/0.75, 2/3, and 20/30 mg/kg/day (BID/QD). BALB/c mice were dosed for 7 consecutive days at 0/0, 0.2/0.3, 2/3, and 20/30 mg/kg/day (BID/QD). SD rats were dosed for 9 consecutive days at 0/0, 0.2/0.3, 2/3, and 20/30 mg/kg/day (BID/QD). Wistar rats were dosed for 7 consecutive days at 0/0, 0.2/0.3, 2/3, and 20/30 mg/kg/day (BID/QD).
(§2) At the completion of the study, animals were sacrificed 16–24 h post their final dose. The hind limb bones (femurs and tibias) were collected at necropsy for bone marrow analysis of NSP activities by kinetic enzymatic assays ([Basso et al., 2022]). See section Quantification of Bone Marrow NSP Activities for details.
(§3) For the mice, each animal had the femurs and tibias of both hind limbs harvested. For the rat, the femur and tibia from a single hind limb per animal was harvested. Bones were kept on wet ice until processing for bone marrow collection. In brief, bone cutters were used to cut the epiphysis (knobby ends) off the long bones to expose the bone marrow filled cavity. Each bone cavity was then flushed with 5 mL/bone (mouse) or 10 mL/bone (rat) of ice-cold RPMI media through a […] and collected in a 50-mL conical tube. Cells were spun down at 2,500 × g at 4°C for 5 min and the supernatant was aspirated. After which, bone marrow cells were lysed with 1X red blood cell (RBC) lysis buffer (Abcam, ab204733) to eliminate contaminating RBCs and washed with PBS to remove any residual RBC lysis buffer. The resulting white blood cells (WBC) were subsequently lysed with 1% (v/v) Triton X-100 in PBS. Lysates were added to 96-well plates and stored at −80°C until NSP analyses.
(§4) Bone marrow lysates prepared as described above were diluted and plated onto 96-well assay plates to quantify NSP activities as described previously ([Basso et al., 2022]). Briefly, peptide substrates for NE (N-Methoxysuccinyl-Ala-Ala-Pro-Val-7-amido-4-methylcoumarin; Sigma; St. Louis, MO; Excitation/Emission at 350/450 nm), PR3 ((7-Methoxycoumarin-4-yl)acetyl-lysyl-(picolinoyl)-Tyr-Asp-Ala-Lys-Gly-Asp-N-3-(2-4-dinitrophenyl)-2-3-diaminopropyonyl-NH2); GenScript; Piscataway, NJ; Excitation/Emission at 340/430 nm), and CatG (N-Succinyl-Ala-Ala-Pro-Phe p nitroanilide; Sigma; Absorbance at 405 nm) were added at a final assay concentration of 100 μM, 40 μM, and 200 μM, respectively, and either fluorescence or absorbance was quantified using a Synergy microplate reader (BioTek; Winooski, VT). The specific NSP activity in each sample was calculated as the total activity minus the activity in the presence of a specific NSP inhibitor (if used), including elastase inhibitor (Abcam) for NE, sivelestat (Abcam) for PR3, and cathepsin G inhibitor I (Cayman Chemical; Ann Arbor, MI) for CatG. NSP concentrations were interpolated based on their activities relative to the standard curves created using active human NE protein (Sigma), active human PR3 protein (Sigma), and active human CatG protein (Sigma), respectively. Due to unavailability of commercial mouse and/or rat NE, PR3, and CatG proteins, the corresponding human proteins were used instead since their catalytic ability is considered to be conserved across species. A portion of each cell lysate sample was retained for protein quantification using a Pierce™ BCA Protein Assay Kit (Thermo Fisher). The NSP activities were normalized for the cell lysate protein concentrations.
(§5) The Pierce™ BCA Protein Assay Kit was used to measure the total protein of the samples after lysis to allow for subsequent normalization. […]

CatG [2] = assay: Bone marrow CatG activity after repeated dosing, Wistar rats; type: in vivo; details: for Reduction of CatG activity vs vehicle / Change From Vehicle Control (%) CatG: 7 days
Protocol: as §1, §2, §3, §4, §5

NSPs (NE, PR3, CatG) = assay: PD onset study, bone marrow NSP activities (all three NSPs), C57BL/6 mice; type: in vivo; details: 5 mg/kg BID
Protocol: A 14-day PD onset study was performed in female C57BL/6 mice dosed BID. Mice were dosed by oral gavage either with vehicle (0 mg/kg) or 5 mg/kg brensocatib (BID; 10 mg/kg/day) for 1, 4, 7, 10, or 14 consecutive days. Plasma was collected from animals during the first 24 h of dosing at 1, 2, 8, 9, 10, and 24 h post the initial dose. Note the 8- and 24-h plasma samples were prior to the afternoon dose and the second day dose (if applicable), respectively. Plasma was used for PK analysis via LC-MS/MS. […]
Bone marrow lysates prepared as described above were diluted and plated onto 96-well assay plates to quantify NSP activities as described previously ([Basso et al., 2022]). Briefly, peptide substrates for NE (N-Methoxysuccinyl-Ala-Ala-Pro-Val-7-amido-4-methylcoumarin; Sigma; St. Louis, MO; Excitation/Emission at 350/450 nm), PR3 ((7-Methoxycoumarin-4-yl)acetyl-lysyl-(picolinoyl)-Tyr-Asp-Ala-Lys-Gly-Asp-N-3-(2-4-dinitrophenyl)-2-3-diaminopropyonyl-NH2); GenScript; Piscataway, NJ; Excitation/Emission at 340/430 nm), and CatG (N-Succinyl-Ala-Ala-Pro-Phe p nitroanilide; Sigma; Absorbance at 405 nm) were added at a final assay concentration of 100 μM, 40 μM, and 200 μM, respectively, and either fluorescence or absorbance was quantified using a Synergy microplate reader (BioTek; Winooski, VT). […]

CatG [3] = system: CatG; set-up: method as in Cipolla et al., 2023; details: Phase 2 trial in NCFBE (WILLOW); ref Cipolla et al., 2023; cited from earlier work
[4] = BID highest dose (20 mg/kg/day)
[5] = highest dose level 20/30 (BID/QD) mg/kg/day

With `Cn1c(=O)oc2ccc(-c3ccc(C[C@@H](C#N)NC(=O)[C@@H]4CNCCCO4)cc3)cc21` [brensocatib] as the compound, how does the “Reduction of CatG activity vs vehicle” value (CatG [1]; [4]) read?
The value was 94%.

And the “Reduction of CatG activity vs vehicle” value (CatG [1]; QD highest dose (30 mg/kg/day))?
The value was 87%.

And the “Combined BID and QD percent reduction, CatG” value (CatG [1]; [5])?
Its value is 90%.

What about the “Change From Vehicle Control (%) CatG” value (CatG [1]; oral BID 0.5 mg/kg/day, 16 h post final dose) of the same compound?
The value was −16% (p = 0.1964).

And the “Change From Vehicle Control (%) CatG” value (CatG [1]; oral BID 2 mg/kg/day, 16 h post final dose)?
Its value is −71% (p < 0.0001).

What about the “Change From Vehicle Control (%) CatG” value (CatG [1]; oral BID 20 mg/kg/day, 16 h post final dose) of the same compound?
Its value is −94% (p < 0.0001).

What about the “Change From Vehicle Control (%) CatG” value (CatG [1]; oral QD 0.75 mg/kg/day, 24 h post final dose) of the same compound?
Its value is −1% (p = 0.9999).

What about the “Change From Vehicle Control (%) CatG” value (CatG [1]; oral QD 3 mg/kg/day, 24 h post final dose) of the same compound?
Its value is −64% (p < 0.0001).

What about the “Change From Vehicle Control (%) CatG” value (CatG [1]; oral QD 30 mg/kg/day, 24 h post final dose) of the same compound?
Its value is −87% (p < 0.0001).

What about the “Reduction of CatG activity vs vehicle” value (CatG [2]; [4]) of the same compound?
Its value is 32%.

What about the “Reduction of CatG activity vs vehicle” value (CatG [2]; QD highest dose (30 mg/kg/day)) of the same compound?
The value was 41%.

What about the “Combined BID and QD percent reduction, CatG” value (CatG [2]; [5]) of the same compound?
Its value is 37%.

What about the “Change From Vehicle Control (%) CatG” value (CatG [2]; oral BID 0.2 mg/kg/day) of the same compound?
Its value is −14% (p = 0.7146).

What about the “Change From Vehicle Control (%) CatG” value (CatG [2]; oral BID 2 mg/kg/day) of the same compound?
The value was −16% (p = 0.6392).

And the “Change From Vehicle Control (%) CatG” value (CatG [2]; oral BID 20 mg/kg/day)?
The value was −32% (p = 0.1106).

What about the “Change From Vehicle Control (%) CatG” value (CatG [2]; oral QD 0.3 mg/kg/day) of the same compound?
The value was “+5% (p = 0.9843)”.

And the “Change From Vehicle Control (%) CatG” value (CatG [2]; oral QD 3 mg/kg/day)?
Its value is −35% (p = 0.0605).

What about the “Change From Vehicle Control (%) CatG” value (CatG [2]; oral QD 30 mg/kg/day) of the same compound?
Its value is −41% (p = 0.0202).

What about the “Time to maximum reduction in NSP activities (observed)” value (NSPs (NE, PR3, CatG); visually observed) of the same compound?
Its value is about 7 days.

And the “Time to maximum reduction in NSP activities (with modeling)” value (NSPs (NE, PR3, CatG); with modeling)?
Its value is about 8 days.

And the “sputum CatG activity” value (CatG [3])?
Its value is “Dose-dependent reductions”.
